Assays:
iNOS protein expression = assay: Western blot of iNOS expression in LPS-stimulated RAW 264.7 cells; format: cell-based; conditions: 34 μM; for effect on iNOS protein expression: LPS-stimulated RAW 264.7 cells; for relative iNOS protein expression: relative to LPS-treated control, LPS 1 μg/mL, 18 h
[1] = test system: HL-60 human acute leukemia cells; assay: Cell cycle analysis, subG1 accumulation; format: cell-based
[2] = Stability in RPMI 1640 cell culture medium; format: physicochemical
[3] = test system: quinone reductase 1 (QR1); assay: QR activity in cell culture; format: cell-based, murine; conditions: Hepa 1c1c7 cells
[4] = DPPH free-radical scavenging
[5] = cell culture medium, 37 °C, 24 h

Structure (SMILES) | effect on iNOS protein expression (iNOS protein expression) | QR1 CD (concentration to double the expression of QR1) [3] | relative iNOS protein expression (iNOS protein expression) | also measured
Oc1ccc(/C=C/c2cc(O)cc(O)c2)cc1 [Resveratrol, 3,5,4′-trihydroxystilbene, reference compound] | moderately suppressed the expression of iNOS | – | – | accumulation of HL-60 cells in subG1 [1]: active; remaining at 0 h ([2]; RPMI 1640 cell culture medium): 100 ± 0.3%; remaining at 24 h ([2]; RPMI 1640 cell culture medium): 46.8 ± 8.7%; degradation during 24 h [2, 5]: ~ 50%
O=S(=O)([O-])Oc1ccc(/C=C/c2cc(OS(=O)(=O)[O-])cc(OS(=O)(=O)[O-])c2)cc1.[K+].[K+].[K+] [compound 2, Resveratrol Tripotassium 3,5,4′-Sulfate] | – | > 11.7 µM | – | DPPH free radical scavenging [4]: inactive
O=S(=O)([O-])Oc1ccc(/C=C/c2cc(O)cc(OS(=O)(=O)[O-])c2)cc1.[K+].[K+] [compound 3, Resveratrol Dipotassium 3,4′-Sulfate] | – | > 10.1 µM | – | –
O=S(=O)([O-])Oc1cc(/C=C/c2ccc(O)cc2)cc(OS(=O)(=O)[O-])c1.[K+].[K+] [compound 4, Resveratrol Tripotassium 3,5-Sulfate] | – | > 10.1 µM | – | –
O=S(=O)([O-])Oc1cc(O)cc(/C=C/c2ccc(O)cc2)c1.[K+] [compound 5, Resveratrol Potassium 3-Sulfate] | moderately suppressed the expression of iNOS | – | 0.54 | –
O=S(=O)([O-])Oc1ccc(/C=C/c2cc(O)cc(O)c2)cc1.[K+] [compound 7, Resveratrol Potassium 4′-Sulfate] | moderately suppressed the expression of iNOS | > 6.9 µM | 0.67 | remaining at 0 h ([2]; buffer): 100 ± 2.2%; remaining at 12 h ([2]; buffer): 95.1 ± 3%; remaining at 24 h ([2]; buffer): 98.8 ± 3.1%; stability [2, 5]: stable for 24 h

Reference: article PMC2917805 (Journal of medicinal chemistry, 2010)
